Measured values published in ChEMBL document CHEMBL1153535, “Nitazoxanide kills replicating and nonreplicating Mycobacterium tuberculosis and evades resistance” (J Med Chem, 2009).
Converted amounts (≈) assume the structure as drawn.

Experiments:
[1] = test system: Mycobacterium tuberculosis; assay: Antimycobacterial activity against Mycobacterium bovis var. bovis BCG in 7H11 solid medium after 7 days; format: functional; conditions: variant bovis BCG, 168 h
[2] = test system: Mycobacterium tuberculosis; assay: Antimycobacterial activity against Mycobacterium bovis var. bovis BCG in 7H9 liquid medium after 7 days; format: functional; conditions: variant bovis BCG, 168 h

## CC(=O)Oc1ccccc1C(=O)Nc1ncc([N+](=O)[O-])s1 [NITAZOXANIDE]
[1]
  MIC: 16 µg/mL (≈ 52.1 µM)
[2]
  MIC: 16 µg/mL (≈ 52.1 µM)
